Entries after “also recorded” stand apart in the source; their conditions may differ. Non-standard residues stand in square brackets, D forms with d. Residues, ends and D or L forms follow the SMILES beside them. dPhe(4-tBu) = CC(C)(C)c1ccc(C[C@@H](N)C(=O)O)cc1; dPhe(4-CF3) = N[C@H](Cc1ccc(C(F)(F)F)cc1)C(=O)O; dPhe(4-CN) = N#Cc1ccc(C[C@@H](N)C(=O)O)cc1; dBip = N[C@H](Cc1ccc(-c2ccccc2)cc1)C(=O)O; dPhe(4-F) = N[C@H](Cc1ccc(F)cc1)C(=O)O; Tic = O=C(O)[C@@H]1Cc2ccccc2CN1
Tests used:
mMC4R [1] = molecular target: T1, mMC4R (Mus musculus, UniProt P56450); test: β-galactosidase cAMP reporter assay, agonist pharmacology in HEK293 cells stably expressing mMC4R; type: cell-based; conditions: for mMC4R percent maximal stimulation relative to NDP-MSH (partial agonist): relative to maximal NDP-MSH signal
T1 construct: expressed in transfected cells
Protocol: (§1) Peptides were synthesized manually with microwave irradiation using standard Fmoc synthesis techniques and purified using semi-preparative reverse-phase high-pressure liquid-chromatography (RP-HPLC). […] Agonist pharmacology was measured at the mMC3R, mMC4R, and mMC5R using a colorimetric β-galactosidase assay that measures cAMP production. Agonist pharmacology was assessed at the mMC1R using the Amplified Luminescent Proximity Homogenous Assay Screen (AlphaScreen, PerkinElmer), as previously described. The MC2R is only stimulated by ACTH, and was not examined in this study. For both assays, HEK293 cells stably expressing the mMCRs were used.
(§2) The peptide ligands were assessed for pharmacological activity at the mMC3R, mMC4R, and mMC5R using a β-galactosidase assay. Briefly, HEK293 cells stably expressing the MC3R, MC4R, or MC5R were plated into a 10 cm dish and grown to 40% confluency. The HEK293 cells were transfected with 4 µg of CRE/β-galactosidase using the calcium-phosphate method, as previously described. Cells (5000 to 15,000) were plated on collagen-treated Nunclon Delta Surface 96-well plates (Thermo Fisher Scientific) and incubated at 37 °C with 5% CO2. […] Plates were stored at −80 °C for up to two weeks.
(§3) Thawed plates were assessed for protein content and assayed for β-galactosidase activity. Relative protein concentration was determined by adding 10 µL of cell lysate to 200 µL of a 1:5 dilution of Bio Rad G250 protein dye in a 96-well plate.
(§4) The EC50 and pA2 values represent the mean of duplicate replicates performed in at least three independent experiments. The EC50 and pA2 values and their associated standard errors (SEM) were determined by fitting the data to a nonlinear least-squares analysis using the PRISM program (v4.0, GraphPad Inc., San Diego, CA, USA). The ligands were assayed as TFA salt and not corrected for peptide content.

mMC3R = molecular target: T2, mMC3R (Mus musculus, UniProt P33033); test: β-galactosidase cAMP reporter assay, agonist pharmacology in HEK293 cells stably expressing mMC3R; type: cell-based; conditions: for decreased agonist potency at the mMC3R compared to KNS2-22-4: ratio of EC50 to KNS2-22-4; for mMC3R percent maximal stimulation relative to NDP-MSH (partial agonist): relative to maximal NDP-MSH signal; for EC50: β-galactosidase cAMP, HEK293, mean ± SEM, apparent EC50 for partial agonists; for agonist selectivity for the mMC3R over the mMC4R: mMC3R versus mMC4R agonist potency
T2 construct: expressed in transfected cells
Protocol: as §1, §2, §3, §4

mMC5R = molecular target: T3, mMC5R (Mus musculus, UniProt P41149); test: β-galactosidase cAMP reporter assay, agonist pharmacology in HEK293 cells stably expressing mMC5R; type: cell-based; conditions: for decreased agonist potency at the mMC5R compared to KNS2-22-4: ratio of EC50 to KNS2-22-4; for EC50: β-galactosidase cAMP, HEK293, mean ± SEM, apparent EC50 for partial agonists
T3 construct: expressed in transfected cells
Protocol: as §1, §2, §3, §4

mMC1R = molecular target: T4, mMC1R (Mus musculus, UniProt Q01727); test: AlphaScreen cAMP assay, agonist pharmacology in HEK293 cells stably expressing mMC1R; type: cell-based; conditions: for EC50: AlphaScreen cAMP, HEK293, mean ± SEM, at least three experiments; for decreased agonist potency at the mMC1R compared to KNS2-22-4: ratio of EC50 to KNS2-22-4
T4 construct: expressed in transfected cells
Protocol: as §1
Peptide ligands were dissolved in DMSO at stock concentrations of 10^−2 M. To assess the pharmacological activity of the tetrapeptides at the mMC1R, HEK293 cells stably expressing the mMC1R were stimulated with the ligands using the cAMP AlphaScreen assay (PerkinElmer) according to the manufacturer’s instruction and as previously described.
Cells were dislodged with Versene (Gibco) at 37 °C, and 10,000 cells/well were plated in a 384-well plate (Optiplate) with freshly made stimulation buffer (Hank’s Balanced Salt Solution (HBSS, 1×), 0.5 mM 3-isobutyl-1-methylxanthine (IBMX), 5 mM HEPES, and 0.1% bovine serum albumin (BSA), pH = 7.4) with 0.5 μg anti-cAMP acceptor beads per well.
Plates were incubated for an additional 2 h in the dark. Post incubation, the plates were read by an EnSpire plate reader (PerkinElmer, Waltham, MA, USA).
as §4

mMC4R [2] = molecular target: T1, mMC4R; test: β-galactosidase cAMP reporter assay, antagonist Schild analysis with NDP-MSH as agonist; type: cell-based; conditions: for mMC4R pA2: Schild analysis, <5.5 = no antagonist potency at highest range (10,000, 5000, 1000, 500 nM)
Protocol: as §1, §2, §3, §4

MC4R = conditions: partial stimulation, % efficacy of NDP-MSH; cited from earlier work

T3 sequence (P41149 whole entry): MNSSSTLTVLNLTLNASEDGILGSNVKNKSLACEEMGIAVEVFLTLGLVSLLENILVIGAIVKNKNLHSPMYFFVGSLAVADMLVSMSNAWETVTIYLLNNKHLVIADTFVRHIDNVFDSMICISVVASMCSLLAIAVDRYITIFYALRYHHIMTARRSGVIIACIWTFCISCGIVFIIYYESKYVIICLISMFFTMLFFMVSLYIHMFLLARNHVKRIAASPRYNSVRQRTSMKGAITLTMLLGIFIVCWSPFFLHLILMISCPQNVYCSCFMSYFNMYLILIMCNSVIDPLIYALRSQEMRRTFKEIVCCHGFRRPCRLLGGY
T2 sequence (P33033 whole entry): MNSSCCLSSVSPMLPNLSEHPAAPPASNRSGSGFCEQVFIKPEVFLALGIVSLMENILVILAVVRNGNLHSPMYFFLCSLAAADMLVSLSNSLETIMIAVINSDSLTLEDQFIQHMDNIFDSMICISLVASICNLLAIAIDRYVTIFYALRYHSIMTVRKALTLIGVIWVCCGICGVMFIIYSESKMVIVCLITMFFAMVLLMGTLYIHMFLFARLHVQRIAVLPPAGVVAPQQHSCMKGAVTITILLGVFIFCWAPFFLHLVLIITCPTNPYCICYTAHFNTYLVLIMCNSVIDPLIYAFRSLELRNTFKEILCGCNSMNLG
T1 sequence (P56450 whole entry): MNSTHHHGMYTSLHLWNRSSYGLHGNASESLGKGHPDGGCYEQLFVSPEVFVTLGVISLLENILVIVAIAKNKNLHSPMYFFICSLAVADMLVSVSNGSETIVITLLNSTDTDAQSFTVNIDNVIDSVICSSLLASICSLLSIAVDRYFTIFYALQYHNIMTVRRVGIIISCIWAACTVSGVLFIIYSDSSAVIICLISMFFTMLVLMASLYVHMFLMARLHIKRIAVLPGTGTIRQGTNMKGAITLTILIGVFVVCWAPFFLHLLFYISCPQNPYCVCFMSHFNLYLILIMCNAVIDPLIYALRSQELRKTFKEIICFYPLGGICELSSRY
T4 sequence (Q01727 whole entry): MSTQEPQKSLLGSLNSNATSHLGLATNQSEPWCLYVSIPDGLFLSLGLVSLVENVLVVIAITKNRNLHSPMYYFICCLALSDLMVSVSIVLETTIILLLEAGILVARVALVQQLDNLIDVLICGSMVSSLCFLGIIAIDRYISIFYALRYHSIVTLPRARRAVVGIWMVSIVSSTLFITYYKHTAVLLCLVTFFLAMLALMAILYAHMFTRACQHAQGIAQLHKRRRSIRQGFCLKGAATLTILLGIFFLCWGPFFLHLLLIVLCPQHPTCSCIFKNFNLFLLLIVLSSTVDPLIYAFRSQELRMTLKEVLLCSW

decreased agonist potency at the mMC3R compared to KNS2-22-4 (mMC3R)	mMC5R agonist efficacy (mMC5R; full agonist = >90% of maximal NDP-MSH signal)	decreased agonist potency at the mMC5R compared to KNS2-22-4 (mMC5R)	mMC5R percent maximal stimulation relative to NDP-MSH (partial agonist) (mMC5R; relative to maximal NDP-MSH signal)	Compound	EC50 (mMC4R [1])	mMC4R agonist activity (mMC4R [1]; full agonist = >90% of maximal NDP-MSH signal, inactive = <20% at 100 µM)	mMC3R percent maximal stimulation relative to NDP-MSH (partial agonist) (mMC3R)	EC50 (mMC3R)	EC50 (mMC5R)	EC50 (mMC1R)	decreased agonist potency at the mMC1R compared to KNS2-22-4 (mMC1R)	mMC4R percent maximal stimulation relative to NDP-MSH (partial agonist) (mMC4R [1])	Kb (mMC4R [2])	mMC4R pA2 (mMC4R [2]; agonist NDP-MSH)	agonist selectivity for the mMC3R over the mMC4R (mMC3R)	potency increase at the mMC1R relative to Ac-His-DPhe-Arg-Trp-NH2 (mMC1R; compared with KNS2-153)	mMC4R antagonist activity (mMC4R [2]; Schild design, agonist NDP-MSH, in the concentrations assayed)	MC4R efficacy relative to NDP-MSH (MC4R)
70 fold	not a full agonist	5 fold	65 % NDP	CC(=O)N[C@@H](Cc1c[nH]cn1)C(=O)N[C@@H](CCCNC(=N)N)C(=O)N[C@H](Cc1ccccc1)C(=O)N1Cc2ccccc2C[C@H]1C(N)=O [KNS3-10, Ac-His-Arg-DPhe-Tic-NH2] (Ac-HR[dF][Tic]-NH2)	3000 ± 2000 nM	full agonist efficacy; also recorded: Full agonism	85 % NDP	900 nM	200 nM	4.6 ± 0.4 nM	6 fold							
				CC(=O)N[C@@H](Cc1c[nH]cn1)C(=O)N[C@@H](CCCNC(=N)N)C(=O)N[C@H](Cc1ccc(C(C)(C)C)cc1)C(=O)N1Cc2ccccc2C[C@H]1C(N)=O [KNS2-23-3, Ac-His-Arg-(ptBu)DPhe-Tic-NH2] (Ac-HR[dPhe(4-tBu)][Tic]-NH2)	> 100000 nM		85 % NDP	13 nM	3.4 ± 0.3 nM	9 ± 3 nM	13 fold	< 20 % NDP	158 nM	6.8	at least 100 fold			
				CC(=O)N[C@@H](Cc1c[nH]cn1)C(=O)N[C@@H](CCCNC(=N)N)C(=O)N[C@H](Cc1ccc(-c2ccccc2)cc1)C(=O)N1Cc2ccccc2C[C@H]1C(N)=O [KNS2-23-1, Ac-His-Arg-DBip-Tic-NH2] (Ac-HR[dBip][Tic]-NH2)	1400 nM			14 ± 2 nM	7.6 ± 0.7 nM	0.6 ± 0.1 nM		45 % NDP		5.9 ± 0.2	at least 100 fold	≥ 10 fold		
				CC(=O)N[C@@H](Cc1c[nH]cn1)C(=O)N[C@@H](CCCNC(=N)N)C(=O)N[C@H](Cc1ccc(C#N)cc1)C(=O)N1Cc2ccccc2C[C@H]1C(N)=O [KNS2-23-8, Ac-His-Arg-(pCN)DPhe-Tic-NH2] (Ac-HR[dPhe(4-CN)][Tic]-NH2)			75 % NDP	4000 nM	500 ± 100 nM	27 ± 6 nM			> 3160 nM				did not result in antagonist activity	
				Ac-Val-Gln-(pI)DPhe-DTic-NH2														less than 50%
30 fold		14 fold		CC(=O)N[C@@H](Cc1c[nH]cn1)C(=O)N[C@@H](CCCNC(=N)N)C(=O)N[C@H](Cc1ccc(F)cc1)C(=O)N1Cc2ccccc2C[C@H]1C(N)=O [KNS2-22-2, Ac-His-Arg-(pF)DPhe-Tic-NH2] (Ac-HR[dPhe(4-F)][Tic]-NH2)	560 nM			450 ± 70 nM	70 ± 40 nM	1.8 ± 0.7 nM		70 % NDP						

Compound	decreased agonist potency at the mMC3R compared to KNS2-22-4 (mMC3R)	mMC5R agonist efficacy (mMC5R; full agonist = >90% of maximal NDP-MSH signal)	decreased agonist potency at the mMC5R compared to KNS2-22-4 (mMC5R)	mMC5R percent maximal stimulation relative to NDP-MSH (partial agonist) (mMC5R; relative to maximal NDP-MSH signal)	EC50 (mMC4R [1])	mMC4R agonist activity (mMC4R [1]; full agonist = >90% of maximal NDP-MSH signal, inactive = <20% at 100 µM)	mMC3R percent maximal stimulation relative to NDP-MSH (partial agonist) (mMC3R)	EC50 (mMC3R)	EC50 (mMC5R)	EC50 (mMC1R)	decreased agonist potency at the mMC1R compared to KNS2-22-4 (mMC1R)	mMC4R percent maximal stimulation relative to NDP-MSH (partial agonist) (mMC4R [1])	Kb (mMC4R [2])	mMC4R pA2 (mMC4R [2]; agonist NDP-MSH)	agonist selectivity for the mMC3R over the mMC4R (mMC3R)	potency increase at the mMC1R relative to Ac-His-DPhe-Arg-Trp-NH2 (mMC1R; compared with KNS2-153)	mMC4R antagonist activity (mMC4R [2]; Schild design, agonist NDP-MSH, in the concentrations assayed)	MC4R efficacy relative to NDP-MSH (MC4R)
CC(=O)N[C@@H](Cc1c[nH]cn1)C(=O)N[C@@H](CCCNC(=N)N)C(=O)N[C@H](Cc1ccc(C(F)(F)F)cc1)C(=O)N1Cc2ccccc2C[C@H]1C(N)=O [KNS2-23-6, Ac-His-Arg-(pCF3)DPhe-Tic-NH2] (Ac-HR[dPhe(4-CF3)][Tic]-NH2)	7 fold				600 nM			90 ± 30 nM	13 ± 4 nM	5 ± 1 nM	7 fold	20 % NDP	316 nM	6.5				
